{"source": "BindingDB's records for doi:10.1021/bi050490d", "about": "(Case Western Reserve University, 2005)", "target": "Kappa-type opioid receptor (Homo sapiens, UniProt P41145)", "sequence (P41145 whole entry)": "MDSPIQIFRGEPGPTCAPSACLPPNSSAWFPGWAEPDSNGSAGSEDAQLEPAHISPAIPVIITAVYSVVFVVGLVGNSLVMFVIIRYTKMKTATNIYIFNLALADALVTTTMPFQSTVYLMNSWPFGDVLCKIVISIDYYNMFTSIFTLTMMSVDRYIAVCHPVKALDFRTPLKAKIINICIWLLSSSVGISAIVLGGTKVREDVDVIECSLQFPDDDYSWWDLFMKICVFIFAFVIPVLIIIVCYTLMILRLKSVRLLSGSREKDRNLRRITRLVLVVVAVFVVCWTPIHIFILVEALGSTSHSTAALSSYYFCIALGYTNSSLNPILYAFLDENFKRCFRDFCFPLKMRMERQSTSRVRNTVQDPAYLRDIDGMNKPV", "data": [{"compound": "CC[C@H](C)[C@H](NC(=O)[C@H](CCCNC(=N)N)NC(=O)[C@H](CCCNC(=N)N)NC(=O)[C@H](CC(C)C)NC(=O)[C@H](Cc1ccccc1)NC(=O)CNC(=O)CNC(=O)[C@@H](N)Cc1ccc(O)cc1)C(=O)N[C@@H](CCCNC(=N)N)C(=O)N1CCC[C@H]1C(=O)N[C@@H](CCCCN)C(=O)N[C@@H](CC(C)C)C(=O)N[C@@H](CCCCN)C(=O)O", "note": "[Dynorphin A (1-13)]", "values": [{"measurement": "Ki", "value": 343, "unit": "nM"}]}]}
